Source: patent US7265120B2, “Pyrazine derivatives and pharmaceutical use thereof” (Astellas Pharma Inc., priority 2004, dated 2007)

Row | Compound | melting point
1 | CC(C)n1nc(-c2nc(C3=CCCN(C)C3)c(N)nc2-c2ccccc2)ccc1=O [Example 92, 6-[5-amino-6-(1-methyl-1,2,5,6-tetrahydro-3-pyridyl)-3-phenyl-2-pyrazinyl]-2-isopropyl-3(2H)-pyridazinone] | 191 to 193 °C
2 | CC(C)n1nc(-c2nc(-c3cnn(C)c3)c(N)nc2-c2ccccc2)ccc1=O [Example 93, 6-[5-amino-6-(1-methyl-1H-pyrazol-4-yl)-3-phenyl-2-pyrazinyl]-2-isopropyl-3(2H)-pyridazinone] | 201 to 203 °C
3 | CC(=O)c1nc(-c2ccc(=O)n(C(C)C)n2)c(-c2ccccc2)nc1N [Example 94, 6-(6-acetyl-5-amino-3-phenyl-2-pyrazinyl)-2-isopropyl-3(2H)-pyridazinone] | 234 to 236.5 °C
4 | CCOC(=O)C=Cc1nc(-c2ccc(=O)n(C(C)C)n2)c(-c2ccccc2)nc1N [Example 95, ethyl 3-[3-amino-6-(1-isopropyl-6-oxo-1,6-dihydro-3-pyridazinyl)-5-phenyl-2-pyrazinyl]acrylate] | 233 to 236 °C
5 | CC(C)n1nc(-c2nc(NCc3ccccc3)c(N)nc2-c2ccccc2)ccc1=O [Example 96, 6-[5-amino-6-(benzylamino)-3-phenyl-2-pyrazinyl]-2-isopropyl-3(2H)-pyridazinone] | 181 to 183.5 °C
6 | CC(C)n1nc(-c2nc(N(C)C)c(N)nc2-c2ccccc2)ccc1=O [Example 96, 6-[5-amino-6-(dimethylamino)-3-phenyl-2-pyrazinyl]-2-isopropyl-3(2H)-pyridazinone] | 174 to 176 °C
7 | COc1ccc(CNc2nc(-c3ccc(=O)n(C(C)C)n3)c(-c3ccccc3)nc2N)cc1 [Example 97, 6-{5-amino-6-[(4-methoxybenzyl)amino]-3-phenyl-2-pyrazinyl}-2-isopropyl-3(2H)-pyridazinone] | 188.5 to 191.5 °C
8 | CC(C)n1nc(-c2nc(NCc3ccccn3)c(N)nc2-c2ccccc2)ccc1=O [Example 98, 6-{5-amino-3-phenyl-6-[(2-pyridylmethyl)amino]-2-pyrazinyl}-2-isopropyl-3(2H)-pyridazinone] | 192 to 194 °C
9 | CCCCNc1nc(-c2ccc(=O)n(C(C)C)n2)c(-c2ccccc2)nc1N [Example 99, 6-[5-amino-6-(butylamino)-3-phenyl-2-pyrazinyl]-2-isopropyl-3(2H)-pyridazinone] | 200 to 202 °C
10 | CCCCNc1nc(-c2ccc(=O)n(C)n2)c(-c2ccccc2)nc1N [Example 100, 6-[5-amino-6-(butylamino)-3-phenyl-2-pyrazinyl]-2-methyl-3(2H)-pyridazinone] | 253 to 255 °C
11 | C=CCNc1nc(-c2ccc(=O)n(C(C)C)n2)c(-c2ccccc2)nc1N [Example 101, 6-[6-(allylamino)-5-amino-3-phenyl-2-pyrazinyl]-2-isopropyl-3(2H)-pyridazinone] | 208 to 210 °C
12 | COCCNc1nc(-c2ccc(=O)n(C(C)C)n2)c(-c2ccccc2)nc1N [Example 102, 6-{5-amino-6-[(2-methoxyethyl)amino]-3-phenyl-2-pyrazinyl}-2-isopropyl-3(2H)-pyridazinone] | 208 to 209.5 °C
13 | CC(C)n1nc(-c2nc(NCCN3CCCCC3)c(N)nc2-c2ccccc2)ccc1=O [Example 103, 6-(5-amino-3-phenyl-6-{[2-(1-piperidinyl)ethyl]amino}-2-pyrazinyl)-2-isopropyl-3(2H)-pyridazinone] | 204.5 to 207 °C
14 | CC(C)n1nc(-c2nc(NCCN3CCOCC3)c(N)nc2-c2ccccc2)ccc1=O [Example 104, 6-(5-amino-6-{[2-(4-morpholinyl)ethyl]amino}-3-phenyl-2-pyrazinyl)-2-isopropyl-3(2H)-pyridazinone] | 230 to 232.5 °C
15 | CC(C)n1nc(-c2nc(NCC3CCCCC3)c(N)nc2-c2ccccc2)ccc1=O [Example 105, 6-{5-amino-6-[(cyclohexylmethyl)amino]-3-phenyl-2-pyrazinyl}-2-isopropyl-3(2H)-pyridazinone] | 219 to 221 °C
16 | CC(C)n1nc(-c2nc(NCCc3ccccn3)c(N)nc2-c2ccccc2)ccc1=O [Example 106, 6-(5-amino-3-phenyl-6-{[2-(2-pyridyl)ethyl]amino}-2-pyrazinyl)-2-isopropyl-3(2H)-pyridazinone] | 204 to 206 °C
17 | CC(C)n1nc(-c2nc(NC3CCN(Cc4ccccc4)CC3)c(N)nc2-c2ccccc2)ccc1=O [Example 107, 6-{5-amino-6-[(1-benzyl-4-piperidinyl)amino]-3-phenyl-2-pyrazinyl}-2-isopropyl-3(2H)-pyridazinone] | 214 to 216.5 °C
18 | CC(C)n1nc(-c2nc(N3CCCCC3)c(N)nc2-c2ccccc2)ccc1=O [Example 108, 6-[5-amino-3-phenyl-6-(1-piperidinyl)-2-pyrazinyl]-2-isopropyl-3(2H)-pyridazinone] | 183 to 185 °C
19 | CC(C)n1nc(-c2nc(N3CCC(N(C)C)C3)c(N)nc2-c2ccccc2)ccc1=O (stereo not shown) [Example 109, 6-{5-amino-6-[3-(dimethylamino)-1-pyrrolidinyl]-3-phenyl-2-pyrazinyl}-2-isopropyl-3(2H)-pyridazinone] | 150 to 152 °C

Row | Compound | melting point
20 | COC1CCN(c2nc(-c3ccc(=O)n(C(C)C)n3)c(-c3ccccc3)nc2N)CC1 [Example 110, 6-[5-amino-6-(4-methoxy-1-piperidinyl)-3-phenyl-2-pyrazinyl]-2-isopropyl-3(2H)-pyridazinone] | 179 to 181 °C
21 | CC(C)n1nc(-c2nc(N3CCC(NS(C)(=O)=O)CC3)c(N)nc2-c2ccccc2)ccc1=O [Example 111, N-{1-[3-amino-6-(1-isopropyl-6-oxo-1,6-dihydro-3-pyridazinyl)-5-phenyl-2-pyrazinyl]-4-piperidinyl}methanesulfonamide] | 220 to 222 °C
22 | CC(C)n1nc(-c2nc(N3CCNCC3)c(N)nc2-c2ccccc2)ccc1=O [Example 112, 6-[5-amino-3-phenyl-6-(1-piperazinyl)-2-pyrazinyl]-2-isopropyl-3(2H)-pyridazinone] | 157 to 159 °C
23 | CC(C)n1nc(-c2nc(N3CCN(C)CC3)c(N)nc2-c2ccccc2)ccc1=O [Example 113, 6-[5-amino-6-(4-methyl-1-piperazinyl)-3-phenyl-2-pyrazinyl]-2-isopropyl-3(2H)-pyridazinone] | 155 to 157 °C
24 | CC(C)n1nc(-c2nc(N3CCN(Cc4ccccn4)CC3)c(N)nc2-c2ccccc2)ccc1=O [Example 114, 6-{5-amino-3-phenyl-6-[4-(2-pyridylmethyl)-1-piperazinyl]-2-pyrazinyl}-2-isopropyl-3(2H)-pyridazinone] | 88 to 91 °C
25 | CC(C)n1nc(-c2nc(N3CCN(c4ccccc4)CC3)c(N)nc2-c2ccccc2)ccc1=O [Example 115, 6-[5-amino-3-phenyl-6-(4-phenyl-1-piperazinyl)-2-pyrazinyl]-2-isopropyl-3(2H)-pyridazinone] | 193 to 195 °C
26 | COc1ccc(N2CCN(c3nc(-c4ccc(=O)n(C(C)C)n4)c(-c4ccccc4)nc3N)CC2)cc1 [Example 116, 6-{5-amino-6-[4-(4-methoxyphenyl)-1-piperazinyl]-3-phenyl-2-pyrazinyl}-2-isopropyl-3(2H)-pyridazinone] | 194 to 196 °C
27 | CC(=O)N1CCN(c2nc(-c3ccc(=O)n(C(C)C)n3)c(-c3ccccc3)nc2N)CC1 [Example 117, 6-[6-(4-acetyl-1-piperazinyl)-5-amino-3-phenyl-2-pyrazinyl]-2-isopropyl-3(2H)-pyridazinone] | 221 to 225 °C
28 | CC(C)n1nc(-c2nc(N3CCN4CCCC4C3)c(N)nc2-c2ccccc2)ccc1=O (stereo not shown) [Example 118, 6-[5-amino-6-(hexahydropyrrolo[1,2-a]pyrazin-2(1H)-yl)-3-phenyl-2-pyrazinyl]-2-isopropyl-3(2H)-pyridazinone] | 205 to 207.5 °C
29 | CC(C)n1nc(-c2nc(N3CC4CCC(C3)O4)c(N)nc2-c2ccccc2)ccc1=O [Example 119, 6-[5-amino-6-(8-oxa-3-azabicyclo[3.2.1]oct-3-yl)-3-phenyl-2-pyrazinyl]-2-isopropyl-3(2H)-pyridazinone] | 235 to 238 °C
30 | COCCNc1nc(-c2ccc(=O)n(C)n2)c(-c2ccccc2)nc1N [Example 120, 6-{5-amino-6-[(2-methoxyethyl)amino]-3-phenyl-2-pyrazinyl}-2-methyl-3(2H)-pyridazinone] | 231 to 232.5 °C
31 | Cn1nc(-c2nc(NCCN3CCCCC3)c(N)nc2-c2ccccc2)ccc1=O [Example 121, 6-(5-amino-3-phenyl-6-{[2-(1-piperidinyl)ethyl]amino}-2-pyrazinyl)-2-methyl-3(2H)-pyridazinone] | 155 to 157 °C
32 | Cn1nc(-c2nc(NCCN3CCOCC3)c(N)nc2-c2ccccc2)ccc1=O [Example 122, 6-(5-amino-6-{[2-(4-morpholinyl)ethyl]amino}-3-phenyl-2-pyrazinyl)-2-methyl-3(2H)-pyridazinone] | 226 to 229 °C
33 | Cn1nc(-c2nc(NCCNc3ccccc3)c(N)nc2-c2ccccc2)ccc1=O [Example 123, 6-{5-amino-6-[(2-anilinoethyl)amino]-3-phenyl-2-pyrazinyl}-2-methyl-3(2H)-pyridazinone] | 181 to 183 °C
34 | Cn1nc(-c2nc(NCc3ccco3)c(N)nc2-c2ccccc2)ccc1=O [Example 124, 6-{5-amino-6-[(2-furylmethyl)amino]-3-phenyl-2-pyrazinyl}-2-methyl-3(2H)-pyridazinone] | 249 to 252 °C
35 | Cn1nc(-c2nc(NCCc3ccccc3)c(N)nc2-c2ccccc2)ccc1=O [Example 125, 6-{5-amino-3-phenyl-6-[(2-phenylethyl)amino]-2-pyrazinyl}-2-methyl-3(2H)-pyridazinone] | 232 to 234 °C
36 | Cn1nc(-c2nc(NCCCc3ccccc3)c(N)nc2-c2ccccc2)ccc1=O [Example 126, 6-{5-amino-3-phenyl-6-[(3-phenylpropyl)amino]-2-pyrazinyl}-2-methyl-3(2H)-pyridazinone] | 196 to 197.5 °C
37 | Cn1nc(-c2nc(NCCc3ccccn3)c(N)nc2-c2ccccc2)ccc1=O [Example 127, 6-(5-amino-3-phenyl-6-{[2-(2-pyridyl)ethyl]amino}-2-pyrazinyl)-2-methyl-3(2H)-pyridazinone] | 224 to 227 °C
